Experimental data published in PubChem BioAssay (NCI).
“And” between values parts separate entries of the source, which are not always exact repeats. Identical values can stand only once.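 Assay format: 96-well plates, 48-hour exposure. GI50 marks 50% less growth. TGI is the concentration that stops growth completely.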

What was measured:
Assay in all cases: NCI tumour cell line growth inhibition, 48 h
SF-539 CNS = tested on: SF-539 CNS
HOP-92 NSCLC = tested on: HOP-92 NSCLC
SNB-75 CNS = tested on: SNB-75 CNS
CAKI-1 renal = tested on: CAKI-1 renal
HOP-18 NSCLC = tested on: HOP-18 NSCLC
HCT-15 colon = tested on: HCT-15 colon
LOX IMVI melanoma = tested on: LOX IMVI melanoma
UO-31 renal = tested on: UO-31 renal
LXFL 529 NSCLC = tested on: LXFL 529 NSCLC
M19-MEL melanoma = tested on: M19-MEL melanoma
IGROV1 ovarian = tested on: IGROV1 ovarian
OVCAR-5 ovarian = tested on: OVCAR-5 ovarian
DMS 273 small cell lung = tested on: DMS 273 small cell lung
RPMI-8226 leukemia = tested on: RPMI-8226 leukemia
MOLT-4 leukemia = tested on: MOLT-4 leukemia
P388 leukemia = tested on: P388 leukemia
SNB-19 CNS = tested on: SNB-19 CNS
SW-620 colon = tested on: SW-620 colon
RXF 393 renal = tested on: RXF 393 renal
NCI-H522 lung = tested on: NCI-H522 lung
NCI-H23 lung = tested on: NCI-H23 lung
NCI-H226 lung = tested on: NCI-H226 lung
KM20L2 colon = tested on: KM20L2 colon
HCT-116 colon = tested on: HCT-116 colon
CCRF-CEM leukemia = tested on: CCRF-CEM leukemia
DMS 114 small cell lung = tested on: DMS 114 small cell lung
SK-MEL-28 melanoma = tested on: SK-MEL-28 melanoma
COLO 205 colon = tested on: COLO 205 colon
KM12 colon = tested on: KM12 colon
SK-OV-3 ovarian = tested on: SK-OV-3 ovarian
SK-MEL-5 melanoma = tested on: SK-MEL-5 melanoma
SF-295 CNS = tested on: SF-295 CNS
HCC-2998 colon = tested on: HCC-2998 colon
OVCAR-8 ovarian = tested on: OVCAR-8 ovarian
SNB-78 CNS = tested on: SNB-78 CNS
SK-MEL-2 melanoma = tested on: SK-MEL-2 melanoma
SN12K1 renal = tested on: SN12K1 renal
HT29 colon = tested on: HT29 colon
SN12C renal = tested on: SN12C renal
HL-60(TB) leukemia = tested on: HL-60(TB) leukemia
P388/ADR leukemia = tested on: P388/ADR leukemia
SR leukemia = tested on: SR leukemia
MALME-3M melanoma = tested on: MALME-3M melanoma
UACC-257 melanoma = tested on: UACC-257 melanoma
XF 498 CNS = tested on: XF 498 CNS
NCI-H460 lung = tested on: NCI-H460 lung
SF-268 CNS = tested on: SF-268 CNS
786-0 renal = tested on: 786-0 renal
MCF7 breast = tested on: MCF7 breast
UACC-62 melanoma = tested on: UACC-62 melanoma
EKVX NSCLC = tested on: EKVX NSCLC
OVCAR-3 ovarian = tested on: OVCAR-3 ovarian
U251 CNS = tested on: U251 CNS
A549 NSCLC = tested on: A549 NSCLC
M14 melanoma = tested on: M14 melanoma
A498 renal = tested on: A498 renal
HOP-62 NSCLC = tested on: HOP-62 NSCLC
DLD-1 colon = tested on: DLD-1 colon
NCI/ADR-RES ovarian = tested on: NCI/ADR-RES ovarian

In the case of `CC1[C@@H]2[C@@H](C=C3C4CCC5Cc6nc7c(nc6C[C@@]5(C)C4C[C@H](O)[C@]32CO)CC2CCC3C4=C[C@H]5O[C@@]6(O[C@@](C)(CO)C[C@@H]6O)C(C)[C@@]5(O)[C@]4(C)[C@@H](O)CC3[C@]2(C)C7)O[C@]12CCC(C)(C)O2` (stereo partly drawn), the GI50 (SF-539 CNS) is reported as 3.63 nM, the TGI (HOP-92 NSCLC) is reported as 84 nM and the GI50 (SNB-75 CNS) is reported as 0.741 nM. The TGI (SNB-75 CNS) was 15.9 nM and 13.4 nM, the GI50 (CAKI-1 renal) was 40.6 nM and the TGI (CAKI-1 renal) was over 3650 nM. It also gave a GI50 (HOP-18 NSCLC) of 2080 nM, a TGI (HOP-18 NSCLC) of over 3650 nM and a GI50 (HCT-15 colon) of 74.4 nM. For the same molecule, the TGI (HCT-15 colon) was 810 nM and 626 nM, the GI50 (LOX IMVI melanoma) was 17 nM and 7.1 nM and the TGI (LOX IMVI melanoma) was over 3650 nM. The GI50 (UO-31 renal) was 117 nM, the TGI (UO-31 renal) was 158 nM and 286 nM and the TGI (LXFL 529 NSCLC) was 71.3 nM. For the same molecule, the GI50 (M19-MEL melanoma) was 2130 nM, the TGI (M19-MEL melanoma) was over 3650 nM and the GI50 (IGROV1 ovarian) was 4.9 nM. For the same molecule, the TGI (IGROV1 ovarian) was over 3650 nM, the GI50 (OVCAR-5 ovarian) was 8.78 nM and the TGI (OVCAR-5 ovarian) was 961 nM and 108 nM. The GI50 (DMS 273 small cell lung) was under 0.365 nM, the GI50 (RPMI-8226 leukemia) was under 0.365 nM and the TGI (MOLT-4 leukemia) was 16.1 nM. The TGI (P388 leukemia) was over 3650 nM, the GI50 (SNB-19 CNS) was 26.4 nM and the TGI (SNB-19 CNS) was 603 nM and > 3650 nM. The GI50 (SW-620 colon) was 7.9 nM, the TGI (SW-620 colon) was 175 nM and 89.2 nM and the GI50 (RXF 393 renal) was under 0.365 nM. For the same molecule, the GI50 (NCI-H522 lung) was 22.8 nM, the TGI (NCI-H522 lung) was 429 nM and the TGI (NCI-H23 lung) was 574 nM. For the same molecule, the GI50 (NCI-H226 lung) was 6.26 nM, the TGI (NCI-H226 lung) was 543 nM and > 3650 nM and the GI50 (KM20L2 colon) was 7.19 nM. The TGI (KM20L2 colon) was 619 nM, the TGI (HCT-116 colon) was 406 nM and 1420 nM and the GI50 (CCRF-CEM leukemia) was 0.474 nM. For the same molecule, the TGI (DMS 114 small cell lung) was over 3650 nM, the TGI (SK-MEL-28 melanoma) was 238 nM and the GI50 (COLO 205 colon) was 42.3 nM. The TGI (COLO 205 colon) was 566 nM and 138 nM, the GI50 (KM12 colon) was 170 nM and the TGI (KM12 colon) was 611 nM and > 3650 nM. For the same molecule, the GI50 (SK-OV-3 ovarian) was under 0.365 nM, the TGI (SK-OV-3 ovarian) was 99.1 nM and 22.4 nM and the GI50 (SK-MEL-5 melanoma) was 8.64 nM. For the same molecule, the TGI (SK-MEL-5 melanoma) was 134 nM and 160 nM, the GI50 (SF-295 CNS) was under 0.365 nM and the GI50 (HCC-2998 colon) was 1340 nM. The TGI (HCC-2998 colon) was 390 nM and > 3650 nM, the GI50 (OVCAR-8 ovarian) was over 3650 nM and the TGI (OVCAR-8 ovarian) was over 3650 nM. The GI50 (SNB-78 CNS) was under 0.365 nM, the TGI (SNB-78 CNS) was 340 nM and 642 nM and the GI50 (SK-MEL-2 melanoma) was 11.4 nM. For the same molecule, the TGI (SK-MEL-2 melanoma) was 455 nM and 284 nM, the TGI (SN12K1 renal) was over 3650 nM and the GI50 (HT29 colon) was 3.02 nM. The TGI (HT29 colon) was 440 nM and 414 nM, the GI50 (SN12C renal) was over 3650 nM and the TGI (SN12C renal) was over 3650 nM. The TGI (HL-60(TB) leukemia) was 496 nM, the TGI (P388/ADR leukemia) was over 3650 nM and the TGI (SR leukemia) was 229 nM. The GI50 (MALME-3M melanoma) was 9.82 nM, the TGI (MALME-3M melanoma) was 722 nM and 183 nM and the TGI (UACC-257 melanoma) was 305 nM and 392 nM. For the same molecule, the GI50 (XF 498 CNS) was under 0.365 nM, the GI50 (NCI-H460 lung) was 0.713 nM and the TGI (NCI-H460 lung) was 132 nM and 104 nM. For the same molecule, the GI50 (SF-268 CNS) was 3.04 nM, the TGI (SF-268 CNS) was 945 nM and 97.2 nM and the TGI (786-0 renal) was 534 nM. It also gave a TGI (MCF7 breast) of 505 nM, a GI50 (UACC-62 melanoma) of 4.89 nM and a TGI (UACC-62 melanoma) of 74.5 nM. For the same molecule, the GI50 (EKVX NSCLC) was 11.9 nM, the TGI (EKVX NSCLC) was 749 nM and 2000 nM and the GI50 (OVCAR-3 ovarian) was 1990 nM. For the same molecule, the TGI (OVCAR-3 ovarian) was over 3650 nM, the GI50 (U251 CNS) was under 0.365 nM and the TGI (U251 CNS) was 66.4 nM. The GI50 (A549 NSCLC) was 6.02 nM, the TGI (A549 NSCLC) was 919 nM and > 3650 nM and the TGI (M14 melanoma) was 63.9 nM. For the same molecule, the GI50 (A498 renal) was 4.09 nM, the TGI (A498 renal) was 84.1 nM and 165 nM and the GI50 (HOP-62 NSCLC) was under 0.365 nM. The GI50 (DLD-1 colon) was 583 nM, the TGI (DLD-1 colon) was over 3650 nM and the TGI (NCI/ADR-RES ovarian) was over 3650 nM.
